Laboratory results reported in article PMC6550521, “Stress-Induced Changes in the Lipid Microenvironment of β-(1,3)-D-Glucan Synthase Cause Clinically Important Echinocandin Resistance in Aspergillus fumigatus” (mBio, 2019).
Where “and” joins values, the source holds several entries; their conditions need not be identical. Equal values may be shown once.

Assays:
[1] = tested on: lipid microenvironment of glucan synthase of clinical isolates 117, 2770 and 32458; test: Lipid analysis (LC-MS/MS) of partially purified glucan synthase; assay type: cell-based, Aspergillus fumigatus; settings: isolates 117, 2770, 32458 treated with CAS
Description: (§1) Approximately 10 μg/ml of partially purified glucan synthase of RG101 and clinical isolates was analyzed for lipid content by LC-MS/MS ([50]) at the Lipidomics Shared Resource of the Medical University of South Carolina (http://www.hollingscancercenter.org/research/shared-resources/lipidomics/index.html).

[2] = tested on: lipid microenvironment of glucan synthase of RG101; test: as above; assay type: cell-based, Aspergillus fumigatus; settings: RG101 grown with CAS 1 μg/ml
Description: as §1

A. fumigatus ATCC 13073 = test: Electron microscopy (SEM, TEM) of cell wall ultrastructure; assay type: cell-based, Aspergillus fumigatus; settings: CAS 4 μg/ml, 16 h, SEM and TEM
Description: (§2) Scanning electron microscopy (SEM) and transmission electron microscopy (TEM) methods were followed as described previously ([49]) and in Text S1.
(§3) For SEM, mycelia of ATCC 13073 and RG101 were grown in the absence and presence of CAS (4 µg/mL) and were fixed with 2.5% (v/v) glutaraldehyde in 0.1 M cacodylate buffer (pH 7.4) at room temperature for 3 h. After being washed with 0.1 M cacodylate buffer, specimens were post-fixed for 1 h with 1% osmium tetroxide in 0.1 M cacodylate buffer (pH 7.4) at 4 °C. Samples were dehydrated in graded ethanol, and then critical point dried in liquid carbon dioxide and sputter-coated with a thin layer of palladium–gold. Observations were carried out using Hitachi S-3400 N scanning electron microscope.
(§4) For TEM, cultures were fixed with 2.5% (v/v) glutaraldehyde solution as described above. They were then post-fixed for 1 h with 1% (w/v) osmium tetroxide in 0.1 M cacodylate buffer (pH 7.4) at 4 °C. After three wash steps in buffer, specimens were dehydrated in a series of graded ethanol and embedded in Embed 812. Thin sections were stained with uranyl acetate followed by lead nitrate and examined in a Hitachi H-7500 electron microscope operated at 100 KV.

A. fumigatus RG101 [3] = test: as above; assay type: cell-based, Aspergillus fumigatus; settings: CAS 4 μg/ml, 16 h, SEM and TEM
Description: as §2, §3, §4

[4] = molecular target: β-(1,3)-D-glucan synthase of clinical isolate 32458 (Aspergillus fumigatus, UniProt Q4WLT4); test: Glucan synthase kinetic inhibition assay, enzyme from clinical isolate 32458; assay type: biochemical; settings: enzyme from isolate 32458 grown at 4 μg/ml CAS
A. fumigatus RG101 [5] = assay type: cell-based, Aspergillus fumigatus
Description: The following drugs (supplier) were tested: caspofungin (Merck & Co., Inc.), micafungin (Astellas Pharma US, Inc.), anidulafungin (Pfizer Inc.), itraconazole (Sigma-Aldrich), voriconazole (Pfizer Inc.), and amphotericin B (Sigma-Aldrich). In addition, rezafungin and ibrexafungerp were obtained from Cidara Therapeutics and Scynexis Inc., respectively.

[6] = tested on: cell wall glucan and chitin of RG101; test: Cell wall carbohydrate analysis (mass spectrometry, calcofluor white); assay type: cell-based, Aspergillus fumigatus; settings: CAS 4 μg/ml
Description: Strains ATCC 13073 and RG101 were grown in the absence and presence of CAS (4 μg/ml) in 6-well microtiter plates containing yeast extract-peptone-dextrose (YPD) broth for 22 h at 37°C. The cells were then lysed using a French press. The broken cell wall sample was processed for chemical analysis using mass spectrometry at the Complex Carbohydrate Research Center (CCRC) at the University of Georgia, Athens, GA.

[7] = tested on: Aspergillus fumigatus clinical isolate 2770; test: Antifungal susceptibility testing (MEC, CLSI M38-A2); assay type: cell-based; settings: clinical isolate 2770, fks1 WT
Description: (§5) Minimum effective concentrations (MECs) for A. fumigatus strains were determined according to CLSI document M38-A2 ([48]) and defined as the lowest drug concentration that led to the growth of small, rounded, compact hyphal forms compared to the hyphal growth seen in the drug-free growth control wells. The following drugs (supplier) were tested: caspofungin (Merck & Co., Inc.), micafungin (Astellas Pharma US, Inc.), anidulafungin (Pfizer Inc.), itraconazole (Sigma-Aldrich), voriconazole (Pfizer Inc.), and amphotericin B (Sigma-Aldrich). In addition, rezafungin and ibrexafungerp were obtained from Cidara Therapeutics and Scynexis Inc., respectively.

[8] = tested on: Aspergillus fumigatus clinical isolate 32315; test: as above; assay type: cell-based; settings: clinical isolate 32315, fks1 WT
Description: as §5

[9] = tested on: Aspergillus fumigatus clinical isolate 68284B; test: as above; assay type: cell-based; settings: fks1 WT
Description: as §5

[10] = molecular target: β-(1,3)-D-glucan synthase of clinical isolate 2770 (Aspergillus fumigatus, UniProt Q4WLT4); test: Glucan synthase kinetic inhibition assay, enzyme from clinical isolate 2770; assay type: biochemical; settings: enzyme from isolate 2770 grown at 4 μg/ml CAS
Sequence of β-(1,3)-D-glucan synthase of clinical isolate 2770 (Q4WLT4 1-1904): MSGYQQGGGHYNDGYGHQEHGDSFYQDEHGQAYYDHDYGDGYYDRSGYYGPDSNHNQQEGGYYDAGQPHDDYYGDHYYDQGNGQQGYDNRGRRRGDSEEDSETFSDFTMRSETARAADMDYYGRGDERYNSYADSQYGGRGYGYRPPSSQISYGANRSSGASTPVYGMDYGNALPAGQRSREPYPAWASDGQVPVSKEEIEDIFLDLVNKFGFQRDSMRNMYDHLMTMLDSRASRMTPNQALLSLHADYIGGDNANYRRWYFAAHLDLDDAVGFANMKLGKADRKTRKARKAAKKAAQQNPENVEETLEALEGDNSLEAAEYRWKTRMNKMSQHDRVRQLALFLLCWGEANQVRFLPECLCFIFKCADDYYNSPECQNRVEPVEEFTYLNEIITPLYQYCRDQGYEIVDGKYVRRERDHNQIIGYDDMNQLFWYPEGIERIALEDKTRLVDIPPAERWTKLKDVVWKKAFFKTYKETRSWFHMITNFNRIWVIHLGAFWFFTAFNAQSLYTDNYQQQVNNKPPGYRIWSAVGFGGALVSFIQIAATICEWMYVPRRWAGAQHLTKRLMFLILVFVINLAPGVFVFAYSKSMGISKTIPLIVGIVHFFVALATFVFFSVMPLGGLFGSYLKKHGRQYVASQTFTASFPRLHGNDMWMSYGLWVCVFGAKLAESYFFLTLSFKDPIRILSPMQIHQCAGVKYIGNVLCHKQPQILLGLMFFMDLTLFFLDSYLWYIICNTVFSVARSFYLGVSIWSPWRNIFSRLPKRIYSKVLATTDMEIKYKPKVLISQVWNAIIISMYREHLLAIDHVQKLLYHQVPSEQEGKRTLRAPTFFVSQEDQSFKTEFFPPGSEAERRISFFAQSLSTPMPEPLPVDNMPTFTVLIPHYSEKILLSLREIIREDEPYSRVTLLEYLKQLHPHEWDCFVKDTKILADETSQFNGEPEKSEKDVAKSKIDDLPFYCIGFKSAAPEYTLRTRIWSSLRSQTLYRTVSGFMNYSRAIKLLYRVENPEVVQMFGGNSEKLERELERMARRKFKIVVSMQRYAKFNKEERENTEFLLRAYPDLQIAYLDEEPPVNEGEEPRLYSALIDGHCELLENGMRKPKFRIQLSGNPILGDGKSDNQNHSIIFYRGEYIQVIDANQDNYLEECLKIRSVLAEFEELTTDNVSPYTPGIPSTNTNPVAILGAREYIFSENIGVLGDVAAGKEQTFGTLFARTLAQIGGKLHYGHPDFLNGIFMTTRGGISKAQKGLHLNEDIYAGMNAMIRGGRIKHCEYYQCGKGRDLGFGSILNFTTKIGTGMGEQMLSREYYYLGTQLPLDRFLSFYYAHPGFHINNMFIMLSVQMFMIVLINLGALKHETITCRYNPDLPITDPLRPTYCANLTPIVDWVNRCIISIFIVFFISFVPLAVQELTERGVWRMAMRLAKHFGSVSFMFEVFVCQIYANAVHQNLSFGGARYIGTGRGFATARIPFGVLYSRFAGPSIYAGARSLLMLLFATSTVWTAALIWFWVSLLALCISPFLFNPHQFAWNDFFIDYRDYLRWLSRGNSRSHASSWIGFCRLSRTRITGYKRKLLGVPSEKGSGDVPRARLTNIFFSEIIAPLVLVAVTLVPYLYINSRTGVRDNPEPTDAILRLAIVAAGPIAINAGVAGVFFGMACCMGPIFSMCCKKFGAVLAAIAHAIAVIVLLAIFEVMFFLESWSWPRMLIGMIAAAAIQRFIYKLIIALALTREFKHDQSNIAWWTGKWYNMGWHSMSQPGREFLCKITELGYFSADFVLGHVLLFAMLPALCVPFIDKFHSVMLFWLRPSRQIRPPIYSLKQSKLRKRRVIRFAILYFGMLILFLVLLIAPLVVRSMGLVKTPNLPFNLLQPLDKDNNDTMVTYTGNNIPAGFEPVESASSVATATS

Sequence of β-(1,3)-D-glucan synthase of clinical isolate 32458 (Q4WLT4 1-1904): as above

## CC[C@H](C)C[C@H](C)CCCCCCCCC(=O)N[C@H]1C[C@@H](O)[C@@H](NCCN)NC(=O)[C@@H]2[C@@H](O)CCN2C(=O)[C@H]([C@H](O)CCN)NC(=O)[C@H]([C@H](O)[C@@H](O)c2ccc(O)cc2)NC(=O)[C@@H]2C[C@@H](O)CN2C(=O)[C@H]([C@@H](C)O)NC1=O [CAS, caspofungin]
[1]
  Abundance of DhSph and PhSph in enzyme preparations of CAS-treated clinical isolates: significantly increased abundance
[2]
  Increase in abundance of dihydrosphingosine (DhSph), CAS-treated vs untreated: 2 fold and 3 fold
  Increase in abundance of phytoceramide (C24), CAS-induced vs uninduced: 3 fold
  Increase in abundance of phytosphingosine (PhSph), CAS-treated vs untreated: 10 fold
A. fumigatus ATCC 13073
  Cell wall ultrastructure of ATCC 13073 grown in the presence of CAS: extensive damage
A. fumigatus RG101 [3]
  Cell wall ultrastructure of RG101 grown in the presence of CAS: did not show any ultrastructural cell wall damage
[4]
  IC50: ~4.57 µM
A. fumigatus RG101 [5]; 24 h
  Breakthrough growth concentrations, RG101: 0.5 to 8 µg/mL
  MEC 2 (rosettes form again), RG101: 16 µg/mL
  Susceptibility phenotype of RG101: resistant
A. fumigatus RG101 [5]; 30 h, all concentrations tested (0.25 to 8 μg/ml)
  Growth phenotype of RG101 at 30 h: full breakthrough
[6]; MS and calcofluor white
  Chitin levels in RG101 upon CAS exposure: no significant increase
[6]; mass spectroscopy
  Cell wall glucan content in RG101 treated with CAS: no reduction
[7]
  MEC (minimum effective concentration): 16 µg/mL
[8]
  MEC (minimum effective concentration): 16 µg/mL
[9]
  MEC (minimum effective concentration): 4 µg/mL
[10]
  IC50: > 9.15 µM
